Measured values reported in patent US8680111B2 (Pfizer Inc., priority 2012, dated 2014).
Like-named read-outs stand apart in the source and are kept apart here.

What was measured:
[1] = biological target: T1, human recombinant wild-type ALK kinase domain (amino acids 1093-1411) (Homo sapiens, UniProt Q9UM73); assay: Wild-type ALK enzyme assay (microfluidic mobility shift); type: biochemical; conditions: ATP 60 μM, competitive inhibition fit
T1 construct: ALK kinase domain (amino acids 1093-1411); made in house
Experimental: The reactions were incubated for 1 h at room temperature, stopped by the addition of 0.1 M EDTA, pH 8, and the extent of reactions (˜15-20% conversion with no inhibitor) was determined after electrophoretic separation of the fluorescently labeled peptide substrate and phosphorylated product on an LabChip EZ Reader II (Caliper Life Sciences, Hopkinton, Mass.).

[2] = biological target: T2, human recombinant L1196M ALK kinase domain (amino acids 1093-1411) (Homo sapiens, UniProt Q9UM73, L1196M); assay: L1196M mutant ALK enzyme assay (microfluidic mobility shift); type: biochemical
T2 construct: ALK kinase domain (amino acids 1093-1411); made in house

[3] = biological target: T3, WT EML4-ALK (NIH-3T3 EML4-ALK wt v1 cells) (Homo sapiens, UniProt Q9UM73); assay: Cellular phospho-ALK (Tyr1604) ELISA assay for WT EML4-ALK; type: cell-based; conditions: 1 hour
T3 construct: expressed in transfected cells; the other entry of the earlier key: EML4 (Q9HC35, Echinoderm microtubule-associated protein-like 4)
Experimental: Cellular Phospho-ALK (Tyr1604) ELISA Assay for EML4-ALK:
The cells were maintained at 37° C. in a 5% CO2 incubator in DMEM (Invitrogen, Carlsbad, Calif.) medium supplemented with 1% L-glutamine, 1% penicillin and streptomycin, 1 ug/ml puromycin and 10% new born calf serum (NCS) in T-75 flasks.
Cells were washed with PBS and re-suspended in DMEM medium supplemented with 0.5% NCS and 1% pen/strep and seeded into 96-well plates at density of 20,000 cells/well/100 μl and incubated in the incubator at 37° C. and 5% CO2. After 20 hours of incubation, 100 μl of assay media (DMEM) in presence of designated PF-compounds concentrations or controls (DMSO) were added into plates and incubated for 1 hour in the incubator. Media was then removed and lysis buffer, containing phosphatase inhibitors and phenylmethanesulfonyl fluoride (PMSF), was added to wells and shaken at 4° C. for 30 minutes to generate protein lysates.
A phospho-ALK (Tyr1604) rabbit antibody was coated onto the 96-well microplates. 50 μl of cell lysates were added to the antibody coated plate and incubated at room temperature for 2 hours. Following extensive washing with 0.1% Tween 20 in PBS to remove unbound materials, ALK mouse mAb was added to detect captured phospho-ALK (Tyr1604) and phospho-ALK fusion proteins. Anti-mouse IgG, HRP-linked antibody was then used to recognize the bound detection antibody. Finally, the chemiluminescent reagent was added and incubated for 10 minutes for signal development. The assay plates were read in the Envision plate reader in the luminescent mode. IC50 values were calculated by a concentration-response curve fitting using a four-parameter analytic method.

[4] = biological target: T4, L1196M EML4-ALK (NIH-3T3 EML4-ALK v1 L1196M cells) (Homo sapiens, UniProt Q9UM73, L1196M); assay: Cellular phospho-ALK (Tyr1604) ELISA assay for L1196M EML4-ALK; type: cell-based
T4 construct: expressed in transfected cells; the other entry of the earlier key: EML4 (Q9HC35, Echinoderm microtubule-associated protein-like 4)

[5] = read-out: WT ALK enzyme assay (Ki)
[6] = ATP 60 μM, 0.5 nM enzyme, competitive inhibition fit, read-out: L1196M ALK enzyme assay (Ki)
[7] = read-out: ELISA assay for WT EML4-ALK (IC50)
[8] = NIH-3T3 EML4-ALK v1 L1196M cells, 1 hour, phospho-ALK (Tyr1604), read-out: ELISA assay for L1196M EML4-ALK (IC50)

| Ki [1, 5] [nM] | Ki [2, 6] [nM] | IC50 [3, 7] [nM] | IC50 [4, 8] [nM] | Compound | also measured |
| --- | --- | --- | --- | --- | --- |
| – | – | – | – | CC1Oc2cc(cnc2N)-c2c(cnn2C)CCCCCOc2ccc(F)cc21 (stereo not drawn) | ring closure, isolated yield (cc_pd bond, Pd(OAc)2/cataCXium A/KOAc, t-amyl alcohol, 30.0 mM, 120.0 °C): 43% |
| – | – | – | – | Cn1ncc2c1-c1cnc(N)c(c1)OCc1cc(F)ccc1OCCC2 | ring closure, isolated yield (ether bond, 13-membered ring, NaH, DMF, 51.0 mM, 50.0 °C, 2 steps): 37% |
| < 0.07 | 0.06 | 0.332 | 3.03 | C[C@H]1Oc2nc(cnc2N)-c2c(nn(C)c2C#N)CN(C2CC2)C(=O)c2ccc(F)cc21 [Example 54, (10R)-7-amino-16-cyclopropyl-12-fluoro-2,10-dimethyl-15-oxo-10,15,16,17-tetrahydro-2H-8,4-(azeno)pyrazolo[4,3-h][2,5,11]benzoxadiazacyclotetradecine-3-carbonitrile] | ring closure, isolated yield (cc_pd bond, 12-membered ring, Pd(OAc)2/cataCXium A/PivOH/KOAc, t-AmOH/water (1 drop), 37.0 mM, […]): 54% |
| 0.2 | 0.88 | 1.83 | 35 | C[C@H]1Oc2nc(cnc2N)-c2cn(C)nc2CN(C)C(=O)c2ccc(F)cc21 [Example 56, (10R)-7-amino-12-fluoro-2,10,16-trimethyl-16,17-dihydro-2H-8,4-(azeno)pyrazolo[4,3-h][2,5,11]benzoxadiazacyclotetradecin-15(10H)-one] | ring closure, isolated yield (cc_pd bond, 12-membered ring, Pd(OAc)2/cataCXium A/KOAc, t-amyl alcohol, 69.8 mM, 120.0 °C): 6% |
| – | – | – | – | Cc1cnc2nc3c(n2c1)-c1cnc(N)c(c1)O[C@H](C)c1cc(F)ccc1C(=O)N(C)C3 [Example 57, (5R)-8-amino-3-fluoro-5,14,19-trimethyl-18,19-dihydro-7,11-(metheno)-pyrimido[2′,1′:2,3]imidazo[4,5-h][2,5,11]benzoxadiazacyclotetradecin-20(5H)-one] | ring closure, isolated yield (amide bond, 12-membered ring, HATU/DIEA, DMF, 25.1 mM): 52%; Ki ([1]; WT ALK enzyme assay (Ki)): 0.14 nM; Ki ([2]; L1196M ALK enzyme assay (Ki)): 2 nM; IC50 ([3]; ELISA assay for WT EML4-ALK (IC50)): 6.79 nM; IC50 ([4]; ELISA assay for L1196M EML4-ALK (IC50)): 365 nM |
| 4.6 | 21.5 | – | – | C[C@H]1Oc2cc(nnc2N)-c2c(nn(C)c2C#N)CN(C)C(=O)c2ccc(F)cc21 [Example 60, (10R)-7-amino-12-fluoro-2,10,16-trimethyl-15-oxo-10,15,16,17-tetrahydro-2H-8,4-(metheno)pyrazolo[4,3-h][2,5,6,11]benzoxatriazacyclotetradecine-3-carbonitrile] | ring closure, isolated yield (amide bond, 12-membered ring, HATU/DIEA, DMF/THF, 18.6 mM, 0.0 °C): 9% |
| < 0.2 | 2.39 | 11.1 | 183 | CCc1onc2c1-c1cnc(N)c(c1)O[C@H](C)c1cc(F)ccc1C(=O)N(C)C2 [Example 82, (10R)-7-amino-3-ethyl-12-fluoro-10,16-dimethyl-16,17-dihydro-8,4-(metheno)[1,2]oxazolo[4,3-h][2,5,11]benzoxadiazacyclotetradecin-15(10H)-one] | ring closure, isolated yield (amide bond, 12-membered ring, 3 steps): 66% |
| 47.6 | 74 | – | – | C[C@@H]1Oc2nc(cnc2N)-c2cn(C)nc2CN(C)C(=O)c2ccc(F)cc21 [Example 83, (10S)-7-amino-12-fluoro-2,10,16-trimethyl-16,17-dihydro-2H-8,4-(azeno)pyrazolo[4,3-h][2,5,11]benzoxadiazacyclotetradecin-15(10H)-one] | ring closure, isolated yield (cc_pd bond, 12-membered ring, Pd(OAc)2/cataCXium A/KOAc, t-amyl alcohol, 120.0 °C, 2 steps): 11% |
| 0.339 | 0.275 | 6.43 | 56 | C[C@H]1Oc2nc(cnc2N)-c2c(C#N)n[nH]c2CN(C)C(=O)c2ccc(F)cc21 [Example 89, (10R)-7-amino-12-fluoro-10,16-di methyl-15-oxo-10,15,16,17-tetrahydro-1H-8,4-(azeno)pyrazolo[4,3-h][2,5,11]benzoxadiazacyclotetradecine-3-carbonitrile] | ring closure, isolated yield (amide bond, 12-membered ring, HATU/DIEA, DMF, 12.6 mM): 15.8% |
| 0.079 | 0.249 | 1.32 | 13 | C[C@H]1Oc2nc(cnc2N)-c2c(C#N)nn(CC(F)F)c2CN(C)C(=O)c2ccc(F)cc21 [Example 90, (10R)-7-amino-1-(2,2-difluoroethyl)-12-fluoro-10,16-dimethyl-15-oxo-10,15,16,17-tetrahydro-1H-8,4-(azeno)pyrazolo[4,3-h][2,5,11]benzoxadiazacyclotetradecine-3-carbonitrile] | ring closure, isolated yield (cc_pd bond, 12-membered ring, Pd(OAc)2/cataCXium A/KOAc, t-amyl alcohol, 46.7 mM): 11% |
| 3.5 | 24.7 | – | – | C[C@H]1Oc2nc(cnc2N)-c2c(C#N)cccc2CN(C)C(=O)c2ccc(F)cc21 [Example 97, (5R)-8-amino-3-fluoro-5,17-dimethyl-18-oxo-5,16,17,18-tetrahydro-7,11-(azeno)dibenzo[g,l][1,4,10]oxadiazacyclotetradecine-12-carbonitrile] | ring closure, isolated yield (amide bond, 12-membered ring, HATU/DIEA, DMF, 6.7 mM): 42% |
| 0.271 | 1.36 | 3.29 | 78.2 | C[C@H]1Oc2cc(cnc2N)-c2c(C#N)nn(C)c2CN(C)C(=O)c2ccc(F)cc21 [Example 114, (10R)-7-amino-12-fluoro-1,10,16-trimethyl-15-oxo-10,15,16,17-tetrahydro-1H-8,4-(metheno)pyrazolo[4,3-h][2,5,11]benzoxadiazacyclotetradecine-3-carbonitrile] | – |
| < 0.08 | 0.09 | 0.96 | 8.18 | C[C@H]1Oc2nc(cnc2N)-c2c(C#N)nn(C)c2CN(C)C(=O)c2ccc(F)cc21 [Example 115, (10R)-7-amino-12-fluoro-1,10,16-trimethyl-15-oxo-10,15,16,17-tetrahydro-1H-8,4-(azeno)pyrazolo[4,3-h][2,5,11]benzoxadiazacyclotetradecine-3-carbonitrile] | – |
| > 1500 | > 3000 | > 10000 | > 10000 | COc1cnc2cc1-c1cnc(N)c(c1)O[C@H](C)c1cc(F)ccc1C(=O)N(C)CC2 [Example 116, (1R)-4-amino-19-fluoro-9-methoxy-1,15-dimethyl-14,15-dihydro-1H-3,7:8,12-di(metheno)-2,5,11,15-benzoxatriazacyclooctadecin-16(13H)-one] | – |
| 2.18 | 17.8 | 35.2 | 393 | C[C@H]1Oc2cc(cnc2N)-c2c(C#N)noc2CN(C)C(=O)c2ccc(F)cc21 [Example 117, (10R)-7-amino-12-fluoro-10,16-dimethyl-15-oxo-10,15,16,17-tetrahydro-8,4-(metheno)[1,2]oxazolo[4,5-h][2,5,11]benzoxadiazacyclotetradecine-3-carbonitrile] | – |
| 17.8 | 64.7 | 217 | 1400 | Cn1nc2c(c1C#N)-c1cnc(N)c(c1)OCc1cc(F)ccc1COC2 [Example 118, 7-amino-12-fluoro-2-methyl-2,10,15,17-tetrahydro-8,4-(metheno)pyrazolo-[4,3-h][2,11,5]benzodioxazacyclotetradecine-3-carbonitrile] | – |
| 1.6 | 13.4 | 7.79 | 264 | CC1Oc2cc(cnc2N)-c2c(nn(C)c2C#N)COCc2ccc(F)cc21 (stereo not drawn) [Example 119] | – |
| 3.32 | 16.5 | 35.3 | 892 | C[C@H]1Oc2cc(cnc2N)-c2c(nn(C)c2C#N)CNC(=O)c2ccc(F)cc21 [Example 132, (10R)-7-amino-12-fluoro-2,10-dimethyl-15-oxo-10,15,16,17-tetrahydro-2H-8,4-(metheno)pyrazolo[4,3-h][2,5,11]benzoxadiazacyclotetradecine-3-carbonitrile] | – |
| 3.06 | 32.8 | 95.8 | 997 | CCn1nnc2c1-c1cnc(N)c(c1)O[C@H](C)c1cc(F)ccc1C(=O)N(C)C2 [Example 133, (10R)-7-amino-3-ethyl-12-fluoro-10,16-dimethyl-16,17-dihydro-3H-4,8-(metheno)[1,2,3]triazolo[4,5-h][2,5,11]benzoxadiazacyclotetradecin-15(10H)-one] | – |
| 2.1 | 12.6 | 45.9 | 814 | C[C@H]1Oc2cc(cnc2N)-c2c(nnn2CC2CCC2)CN(C)C(=O)c2ccc(F)cc21 [Example 135, (10R)-7-amino-3-(cyclobutylmethyl)-12-fluoro-10,16-dimethyl-16,17-dihydro-3H-8,4-(metheno)[1,2,3]triazolo[4,5-h][2,5,11]benzoxadiazacyclotetradecin-15(10H)-one] | – |
| 0.6 | 4.8 | 28.5 | 419 | C[C@H]1Oc2cc(cnc2N)-c2c(nnn2C2CCC2)CN(C)C(=O)c2ccc(F)cc21 [Example 136, (10R)-7-amino-3-cyclobutyl-12-fluoro-10,16-dimethyl-16,17-dihydro-3H-8,4-(metheno)[1,2,3]triazolo[4,5-h][2,5,11]benzoxadiazacyclotetradecin-15(10H)-one] | – |
